# Reference: ChEMBL document CHEMBL1671687, “Enhancement of biofilm formation by subinhibitory concentrations of macrolides in icaADBC-positive and -negative clinical isolates of Staphylococcus epidermidis” (2010)
# Activity calls are given as the source filed them. The calls are words filed in the database; no cut-off is given here.
# Tests used:
# [1] = test system: Staphylococcus epidermidis; assay: Antimicrobial activity against Staphylococcus epidermidis SW029 expressing icaA gene; type: functional
# [2] = test system: Staphylococcus epidermidis; assay: Antimicrobial activity against Staphylococcus epidermidis SW036; type: functional
# [3] = test system: Staphylococcus epidermidis; assay: Antimicrobial activity against Staphylococcus epidermidis SW036 at 1/1024 X MIC; type: functional, organism-based
# [4] = test system: Staphylococcus epidermidis; assay: Antimicrobial activity against Staphylococcus epidermidis SW029 expressing icaA gene assessed as enhancement of biofilm formation after 18 hrs by microtiter plate assay; type: functional
# [5] = test system: Staphylococcus epidermidis; assay: Antimicrobial activity against Staphylococcus epidermidis SW036 assessed as enhancement of biofilm formation after 18 hrs by microtiter plate assay; type: functional
# [6] = test system: Staphylococcus epidermidis; assay: Upregulation of icaA gene expression in Staphylococcus epidermidis SW029 at 8 ug/ml after 6 hrs by RT-PCR relative to untreated control; type: functional
# [7] = test system: Staphylococcus epidermidis; assay: Upregulation of atlE gene expression in Staphylococcus epidermidis SW029 at 8 ug/ml after 6 hrs by RT-PCR relative to untreated control; type: functional
# [8] = test system: Staphylococcus epidermidis; assay: Upregulation of fruA gene expression in Staphylococcus epidermidis SW029 at 8 ug/ml after 6 hrs by RT-PCR relative to untreated control; type: functional
# [9] = test system: Staphylococcus epidermidis; assay: Upregulation of pyrR gene expression in Staphylococcus epidermidis SW029 at 8 ug/ml after 6 hrs by RT-PCR relative to untreated control; type: functional
# [10] = test system: Staphylococcus epidermidis; assay: Upregulation of sarA gene expression in Staphylococcus epidermidis SW029 at 8 ug/ml after 6 hrs by RT-PCR relative to untreated control; type: functional
# [11] = test system: Staphylococcus epidermidis; assay: Upregulation of sigB gene expression in Staphylococcus epidermidis SW029 at 8 ug/ml after 6 hrs by RT-PCR relative to untreated control; type: functional
# [12] = test system: Staphylococcus epidermidis; assay: Upregulation of icaA gene expression in Staphylococcus epidermidis SW029 at 8 ug/ml after 24 hrs by RT-PCR relative to untreated control; type: functional
# [13] = test system: Staphylococcus epidermidis; assay: Upregulation of atlE gene expression in Staphylococcus epidermidis SW029 at 8 ug/ml after 24 hrs by RT-PCR relative to untreated control; type: functional
# [14] = test system: Staphylococcus epidermidis; assay: Upregulation of sarA gene expression in Staphylococcus epidermidis SW029 at 8 ug/ml after 24 hrs by RT-PCR relative to untreated control; type: functional
# [15] = test system: Staphylococcus epidermidis; assay: Downregulation of sigB gene expression in Staphylococcus epidermidis SW029 at 8 ug/ml after 24 hrs by RT-PCR relative to untreated control; type: functional
# [16] = test system: Staphylococcus epidermidis; assay: Upregulation of atlE gene expression in Staphylococcus epidermidis SW036 at 8 ug/ml after 6 hrs by RT-PCR relative to untreated control; type: functional
# [17] = test system: Staphylococcus epidermidis; assay: Upregulation of fruA gene expression in Staphylococcus epidermidis SW036 at 8 ug/ml after 6 hrs by RT-PCR relative to untreated control; type: functional
# [18] = test system: Staphylococcus epidermidis; assay: Upregulation of pyrR gene expression in Staphylococcus epidermidis SW036 at 8 ug/ml after 6 hrs by RT-PCR relative to untreated control; type: functional
# [19] = test system: Staphylococcus epidermidis; assay: Upregulation of sarA gene expression in Staphylococcus epidermidis SW036 at 8 ug/ml after 6 hrs by RT-PCR relative to untreated control; type: functional
# [20] = test system: Staphylococcus epidermidis; assay: Upregulation of sigB gene expression in Staphylococcus epidermidis SW036 at 8 ug/ml after 6 hrs by RT-PCR relative to untreated control; type: functional
# [21] = test system: Staphylococcus epidermidis; assay: Enhancement of biofilm formation Staphylococcus epidermidis ATCC 35984 expressing icaA gene at 1/4 X MIC by microtiter plate assay; type: functional
# [22] = test system: Staphylococcus epidermidis; assay: Enhancement of biofilm formation Staphylococcus epidermidis SW027 expressing icaA gene at 1/4 X MIC by microtiter plate assay; type: functional
# [23] = test system: Staphylococcus epidermidis; assay: Enhancement of biofilm formation Staphylococcus epidermidis SW029 expressing icaA gene at 1/4 X MIC by microtiter plate assay; type: functional
# [24] = test system: Staphylococcus epidermidis; assay: Enhancement of biofilm formation Staphylococcus epidermidis SW032 expressing icaA gene at 1/4 X MIC by microtiter plate assay; type: functional
# [25] = test system: Staphylococcus epidermidis; assay: Enhancement of biofilm formation Staphylococcus epidermidis SW045 expressing icaA gene at 1/4 X MIC by microtiter plate assay; type: functional
# [26] = test system: Staphylococcus epidermidis; assay: Enhancement of biofilm formation Staphylococcus epidermidis SW058 expressing icaA gene at 1/4 X MIC by microtiter plate assay; type: functional
# [27] = test system: Staphylococcus epidermidis; assay: Enhancement of biofilm formation Staphylococcus epidermidis SW061 expressing icaA gene at 1/4 X MIC by microtiter plate assay; type: functional
# [28] = test system: Staphylococcus epidermidis; assay: Enhancement of biofilm formation Staphylococcus epidermidis SW067 expressing icaA gene at 1/4 X MIC by microtiter plate assay; type: functional
# [29] = test system: Staphylococcus epidermidis; assay: Enhancement of biofilm formation Staphylococcus epidermidis SW085 expressing icaA gene at 1/4 X MIC by microtiter plate assay; type: functional
# [30] = test system: Staphylococcus epidermidis; assay: Enhancement of biofilm formation Staphylococcus epidermidis SW098 expressing icaA gene at 1/4 X MIC by microtiter plate assay; type: functional
# [31] = test system: Staphylococcus epidermidis; assay: Enhancement of biofilm formation Staphylococcus epidermidis SW104 expressing icaA gene at 1/4 X MIC by microtiter plate assay; type: functional
# [32] = test system: Staphylococcus epidermidis; assay: Enhancement of biofilm formation Staphylococcus epidermidis SW126 expressing icaA gene at 1/4 X MIC by microtiter plate assay; type: functional
# [33] = test system: Staphylococcus epidermidis; assay: Enhancement of biofilm formation Staphylococcus epidermidis SW015 at 1/4 X MIC by microtiter plate assay; type: functional
# [34] = test system: Staphylococcus epidermidis; assay: Enhancement of biofilm formation Staphylococcus epidermidis SW021 at 1/4 X MIC by microtiter plate assay; type: functional
# [35] = test system: Staphylococcus epidermidis; assay: Enhancement of biofilm formation Staphylococcus epidermidis SW036 at 1/4 X MIC by microtiter plate assay; type: functional
# [36] = test system: Staphylococcus epidermidis; assay: Enhancement of biofilm formation Staphylococcus epidermidis SW070 at 1/4 X MIC by microtiter plate assay; type: functional
# [37] = test system: Staphylococcus epidermidis; assay: Enhancement of biofilm formation Staphylococcus epidermidis SW071 at 1/4 X MIC by microtiter plate assay; type: functional
# [38] = test system: Staphylococcus epidermidis; assay: Enhancement of biofilm formation Staphylococcus epidermidis SW082 at 1/4 X MIC by microtiter plate assay; type: functional
# [39] = test system: Staphylococcus epidermidis; assay: Enhancement of biofilm formation Staphylococcus epidermidis SW088 at 1/4 X MIC by microtiter plate assay; type: functional
# [40] = test system: Staphylococcus epidermidis; assay: Enhancement of biofilm formation Staphylococcus epidermidis SW099 at 1/4 X MIC by microtiter plate assay; type: functional
# [41] = test system: Staphylococcus epidermidis; assay: Enhancement of biofilm formation Staphylococcus epidermidis SW115 at 1/4 X MIC by microtiter plate assay; type: functional
# [42] = test system: Staphylococcus epidermidis; assay: Enhancement of biofilm formation Staphylococcus epidermidis SW120 at 1/4 X MIC by microtiter plate assay; type: functional
# [43] = test system: Staphylococcus epidermidis; assay: Antimicrobial activity against Staphylococcus epidermidis SW029 expressing icaA gene assessed as formation of multilayer biofilms at 48 hrs by SEM; type: functional, organism-based
# [44] = test system: Staphylococcus epidermidis; assay: Antimicrobial activity against Staphylococcus epidermidis SW029 expressing icaA gene assessed as increased biofilm formation at 6 to 12 hrs by CLSM; type: functional, organism-based
# [45] = test system: Staphylococcus epidermidis; assay: Effect on polysaccharide secretion in Staphylococcus epidermidis SW029 expressing icaA gene at 12 hrs by SEM; type: functional, organism-based
# [46] = test system: Staphylococcus epidermidis; assay: Antimicrobial activity against compound pretreated Staphylococcus epidermidis assessed as biofilm formation at 1/4 X MIC relative to untreated control; type: functional
# [47] = test system: Staphylococcus epidermidis; assay: Antimicrobial activity against Staphylococcus epidermidis lacking compound-induced biofilms; type: functional
# [48] = test system: Staphylococcus epidermidis; assay: Antimicrobial activity against Staphylococcus epidermidis lacking compound-induced biofilms assessed as biofilm formation at 1/4 X MIC relative to untreated control; type: functional
# [49] = test system: Staphylococcus epidermidis; assay: Antimicrobial activity against compound pretreated Staphylococcus epidermidis biofilms; type: functional
smiles,measurement,setting,value
CC[C@H]1OC(=O)[C@H](C)[C@@H](O[C@H]2C[C@@](C)(OC)[C@@H](O)[C@H](C)O2)[C@H](C)[C@@H](O[C@@H]2O[C@H](C)C[C@H](N(C)C)[C@H]2O)[C@](C)(O)C[C@@H](C)C(=O)[C@H](C)[C@@H](O)[C@]1(C)O [ERYTHROMYCIN],MIC,[1],> 128 µg/mL
same,MIC,[2],> 128 µg/mL
same,Activity,[3],Active
same,Activity,[4],173%
same,Activity,[5],100%
same,fold change (FC),[6],1.2
same,fold change (FC),[7],6.2
same,fold change (FC),[8],4.5
same,fold change (FC),[9],3.7
same,fold change (FC),[10],1.7
same,fold change (FC),[11],2
same,fold change (FC),[12],2.8
same,fold change (FC),[13],2.4
same,fold change (FC),[14],6.9
same,fold change (FC),[15],0.6
same,fold change (FC),[16],1.8
same,fold change (FC),[17],2.4
same,fold change (FC),[18],2.4
same,fold change (FC),[19],1.7
same,fold change (FC),[20],1.4
same,Activity,[21],7%
same,Activity,[22],60.4%
same,Activity,[23],159.6%
same,Activity,[24],78.5%
same,Activity,[25],47.2%
same,Activity,[26],37.9%
same,Activity,[27],50.8%
same,Activity,[28],150.3%
same,Activity,[29],297.8%
same,Activity,[30],93.9%
same,Activity,[31],63.2%
same,Activity,[32],56.1%
same,Activity,[33],87.8%
same,Activity,[34],34.7%
same,Activity,[35],284.3%
same,Activity,[36],172.2%
same,Activity,[37],230.4%
same,Activity,[38],58.7%
same,Activity,[39],163.1%
same,Activity,[40],55.7%
same,Activity,[41],166.8%
same,Activity,[42],69.4%
same,Activity,[43],inactive
same,Activity,[44],inactive
same,Activity,[45],inactive
same,Ratio,[46],2.51
same,MIC,[47],≥ 16 µg/mL
same,Ratio,[48],1.02
same,MIC,[49],≥ 32 µg/mL
